# From patent US12043601B2, “N-substituted-1H-1,2,4-triazole-3-carboxamides, analogues thereof, and methods of treatment using same” (THE REGENTS OF THE UNIVERSITY OF COLORADO, priority 2018, dated 2024)
# Several values for one entry are separate records, joined by “and”; a condition that tells them apart may be missing. Equal entries are not always repeated. Entries after “also recorded” stand apart in the source; their conditions may differ. Where two headings read alike, the source gives them in different places.
# Experiments:
# J774 cells = assay: Lactate dehydrogenase (LDH) release from infected host cells; format: cell-based; details: 32 μg/ml; 18 h after infection with wild-type or ΔdksA Salmonella; p=0.3
# DksA [1] = biological target: T1, DksA (Salmonella typhimurium, UniProt P0A1G5); assay: DksA-mediated repression of rpsM in vitro transcription (IVT, qRT-PCR); format: biochemical
# Description: (§1) To measure the potency of a compound in inhibition of DksA biological function, rpsMtranscripts in vitro was determined by non-radioactive in vitro transcription reactions with qPCR analysis with divergent compounds. Briefly, 5 nM pTIM-rpsMplasmid was mixed with 0.1-100 nM of compounds in 10 μl reaction buffer (40 mM HEPES [pH 7.4], 2 mM MgCl2, 60 mM potassium glutamate, 0.05% NP-40, 200 μM ATP, 200 μM GTP, 200 μM CTP, 200 μM UTP, and 5 nM E. coli RNA polymerase holoenzyme (NEB, Ipswich, MA) with 5 μM DksA. The in vitro transcription was carried out at 37° C. for 10 min, and then terminated at 70° C. for 10 min. To remove template DNA after treated with DNaseI, DNA-free DNA Removal kit (ThermoFisher) was used according to manufacturer's direction. The resulting materials were used as templates to generate cDNA with 100 U MMLV reverse transcriptase (Promega), 0.45 μM gene specific primer, and 20 U RNase inhibitor (Promega). The amount of cDNA synthesized for 1 h at 42° C. was quantified by real-time PCR (qRT-PCR). The copy number of specific transcripts was calculated to the standard curve generated with known gene copy concentrations. The IC50 is the concentration at which the curve passes through the 50% inhibition level. Standard deviation was calculated from 3 independent experiments.
# The compounds obtained in this screen were further analyzed for binding to the acidic pocket at the tip of DksA coiled-coil domain using the computer search program Dock. The analysis identified over 400 compounds. A panel of 40 compounds was selected from the top hits based on free energy binding scores. These compounds were investigated using the computer modeling program O. Two additional criteria were applied in order to narrow down the list of candidates: First, the compounds needed to fit deep into the pocket without any clashes; and second, the compounds bound to DksA should have minimal exposed moieties. The compounds selected were further refined according to energy minimization as calculated by the CNS program. 23 compounds were obtained from MolPort and they were tested for their ability to interfere with DksA in a high throughput screen that combined in vitro transcription with highly specific and quantitative qRT-PCR. Five of these compounds, including N-(3,4-dimethoxyphenyl)-1H-1,2,4-triazole-3-carboxamide (1), prevented DksA-mediated repression of rpsM in vitro transcription to some degree. […] Without intending to be limited to any particular theory, the effect that 1 has on DksA-dependent rpsM or hisG gene transcription is potentially due to differences in promoter activity.
# The compounds were initially tested at 0.1 μM and 1 μM using as a target the promoter of the livJ gene that encodes a transporter of branch-chain amino acids (Table 4).
# [2] = test system: intracellular Salmonella in J774 macrophage-like cells; assay: Intracellular growth of Salmonella in macrophages; format: cell-based; details: for Antimicrobial activity against intracellular Salmonella growing in macrophages: J774 cells, cell culture media containing 10% fetal bovine serum
# Salmonella strain 14028s [3] = assay: Minimum inhibitory concentration in EG minimal media; format: cell-based, Salmonella Typhimurium; details: for Growth in EG at concentration tested 1 μg/ml / Growth in EG at concentration tested 2 μg/ml / Growth in EG at concentration tested 4 μg/ml / Growth in EG at concentration tested 8 μg/ml / Growth in EG at concentration tested 16 μg/ml: EG minimal media, 37° C.
# Summary of the method: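 Wild-type Salmonella strain 14028s was cultured overnight (18.5 h), then diluted into EG minimal media at roughly 10^5 CFU/mL. Tubes were shaken at 37° C. for 18 h and checked for bacterial growth, a proxy for DksA-dependent metabolic regulation. The MIC was the lowest compound concentration that prevented growth.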
# SPI2 effector sifA = assay: Intracellular expression of SPI2 effector sifA in infected macrophages; format: cell-based; details: Salmonella-infected macrophages, 16 μg/ml
# DksA [4] = biological target: T1, DksA; assay: DksA-dependent activation of hisG in vitro transcription; format: biochemical; details: as little as 0.1 μM
# Description: To measure the potency of a compound in inhibition of DksA biological function, rpsMtranscripts in vitro was determined by non-radioactive in vitro transcription reactions with qPCR analysis with divergent compounds. […] The amount of cDNA synthesized for 1 h at 42° C. was quantified by real-time PCR (qRT-PCR). The copy number of specific transcripts was calculated to the standard curve generated with known gene copy concentrations. […] Standard deviation was calculated from 3 independent experiments.
# The compounds obtained in this screen were further analyzed for binding to the acidic pocket at the tip of DksA coiled-coil domain using the computer search program Dock. […] The compounds selected were further refined according to energy minimization as calculated by the CNS program. 23 compounds were obtained from MolPort and they were tested for their ability to interfere with DksA in a high throughput screen that combined in vitro transcription with highly specific and quantitative qRT-PCR. […]
# DksA [5] = biological target: T1, DksA; assay: DksA-dependent livJ in vitro transcription; format: biochemical; details: livJ promoter; for IVT: concentration showing activity
# Summary of the method: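 Template plasmid (5 nM) was transcribed for 10 min at 37° C by 5 nM E. coli RNA polymerase holoenzyme with 5 μM DksA, 200 μM each NTP, pH 7.4 HEPES buffer. Compounds were at 0.1-100 nM, initial tests at 0.1 and 1 μM on livJ promoter. Transcripts were quantified by RT-qPCR against a standard curve; IC50 at 50% inhibition from 3 independent experiments.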
# E. coli strain 3110 = assay: Minimum inhibitory concentration in EG minimum media, E. coli; format: cell-based; details: Escherichia coli
# Excerpt: DksA controls transcription of metabolic and virulence genes, allowing bacteria to both grow in minimum media and cause disease. Inhibition of bacterial growth in EG minimum media was used as an easy and reliable proxy of the DksA-dependent regulation of metabolism.
# Salmonella = assay: Disk diffusion assay; format: cell-based; details: among drugs that inhibited DksA function in the in vitro screens
# Description: Salmonella was grown overnight in LB broth at 37° C. with shaking. The bacterial cultures were diluted by 1:1000 with PBS. 100 μl of the diluted samples were transferred into E-salts glucose agar. The bacteria were spread on the surface of the agar. Two discs (BBL blank paper discs 6 mm) were placed per/plate, and 10 μl of 10 mM or 100 mM stock compound were added to the discs. The plates were incubated at 37° C. overnight. The diameter of inhibition was expressed in mm.
# [6] = test system: T2, E. coli RNA polymerase holoenzyme; assay: rpsM in vitro transcription by RNA polymerase itself; format: biochemical; details: up to 10 μM
# T2 construct: purchased NEB, Ipswich, MA
# Description: as §1, with “Briefly, 5 nM pTIM-rpsMplasmid was mixed with 0.1-100 nM of compounds in 10 μl reaction buffer (40 mM HEPES [pH 7.4], 2 mM MgCl2, 60 mM potassium glutamate, 0.05% NP-40, 200 μM ATP, 200 μM GTP, 200 μM CTP, 200 μM UTP, and 5 nM E. coli RNA polymerase holoenzyme (NEB, Ipswich, MA) with 5 μM DksA.” left out
# The compounds obtained in this screen were further analyzed for binding to the acidic pocket at the tip of DksA coiled-coil domain using the computer search program Dock. The analysis identified over 400 compounds. […] The compounds selected were further refined according to energy minimization as calculated by the CNS program. […]
# Compound solubility = format: physicochemical; details: for Compound Solubility, 1 μM: solvent at 1 μM; for Compound Solubility, 10 μM: solvent at 10 μM; for Compound Solubility, 100 μM: solvent at 100 μM; for Compound Solubility, 1 mM: solvent at 1 mM; for Compound Solubility, 10 mM: solvent at 10 mM; for Compound Solubility, 16 mg/ml: solvent at 16 mg/ml
# Salmonella strain 14028s [7] = assay: Growth and survival assay in combination with antibiotics that target DNA replication; format: cell-based; details: #21 8 μg/ml, #23 16 μg/ml; EG media, 37° C., 20 hrs
# Description: Salmonella strain 14028s was grown overnight at 37° C. with shaking in LB broth. Cell density was measured by spectrometer by following OD600. Cells were centrifuged and washed once with EG Minimal Salts Media (57.4 mM K2HPO4, 1.7 mM MgSO4, 9.5 mM Citric acid, 16.7 mM H5NNaPO4, and 0.4% D-Glucose, pH 7.0). The specimens were then resuspended with EG media and adjusted to the final concentration of 1×10^5/ml.
# One hundred microliters of the cell dilution were plated onto LB agar plate to verify the starting concentration. Ten 5-ml cell culture tubes were prepared, and the diluted cells were transferred to the culture tubes at 1 ml/tube. The first culture tube was reserved as the control. The remaining nine tubes were divided into 3 groups (3 tubes each), which were treated with Nitrofurazone, 4-Nitroquinoline N-oxide, and Mitomycin C at 8 μM, 8 μM, and 0.75 μM, respectively. Within each group, two of the tubes additionally received compounds #21 or #23 at 8 μg/ml and 16 μg/ml, respectively. All tubes were then incubated with shaking at 37° C. for 20 hrs. Cells were collected, diluted, plated on LB agar plates, and subsequently counted. Survival percentages were calculated using bacteria counts divided by starting concentration.
# T1 sequence (P0A1G5 whole entry): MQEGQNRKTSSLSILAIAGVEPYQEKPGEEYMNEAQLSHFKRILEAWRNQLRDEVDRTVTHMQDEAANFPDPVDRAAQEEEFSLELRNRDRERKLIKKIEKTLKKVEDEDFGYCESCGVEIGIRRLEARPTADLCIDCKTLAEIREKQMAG
# T2 sequence (P0A7Z4 whole entry): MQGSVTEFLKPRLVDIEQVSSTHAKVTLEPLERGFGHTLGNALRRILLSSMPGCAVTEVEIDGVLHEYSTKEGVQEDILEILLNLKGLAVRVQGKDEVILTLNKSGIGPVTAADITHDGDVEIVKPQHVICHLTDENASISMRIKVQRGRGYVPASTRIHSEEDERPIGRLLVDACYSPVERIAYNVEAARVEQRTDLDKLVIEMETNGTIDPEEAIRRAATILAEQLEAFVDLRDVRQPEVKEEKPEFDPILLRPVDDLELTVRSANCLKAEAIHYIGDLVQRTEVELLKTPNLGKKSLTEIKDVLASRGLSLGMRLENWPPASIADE
# T2 sequence (P0A8V2 whole entry, further chain): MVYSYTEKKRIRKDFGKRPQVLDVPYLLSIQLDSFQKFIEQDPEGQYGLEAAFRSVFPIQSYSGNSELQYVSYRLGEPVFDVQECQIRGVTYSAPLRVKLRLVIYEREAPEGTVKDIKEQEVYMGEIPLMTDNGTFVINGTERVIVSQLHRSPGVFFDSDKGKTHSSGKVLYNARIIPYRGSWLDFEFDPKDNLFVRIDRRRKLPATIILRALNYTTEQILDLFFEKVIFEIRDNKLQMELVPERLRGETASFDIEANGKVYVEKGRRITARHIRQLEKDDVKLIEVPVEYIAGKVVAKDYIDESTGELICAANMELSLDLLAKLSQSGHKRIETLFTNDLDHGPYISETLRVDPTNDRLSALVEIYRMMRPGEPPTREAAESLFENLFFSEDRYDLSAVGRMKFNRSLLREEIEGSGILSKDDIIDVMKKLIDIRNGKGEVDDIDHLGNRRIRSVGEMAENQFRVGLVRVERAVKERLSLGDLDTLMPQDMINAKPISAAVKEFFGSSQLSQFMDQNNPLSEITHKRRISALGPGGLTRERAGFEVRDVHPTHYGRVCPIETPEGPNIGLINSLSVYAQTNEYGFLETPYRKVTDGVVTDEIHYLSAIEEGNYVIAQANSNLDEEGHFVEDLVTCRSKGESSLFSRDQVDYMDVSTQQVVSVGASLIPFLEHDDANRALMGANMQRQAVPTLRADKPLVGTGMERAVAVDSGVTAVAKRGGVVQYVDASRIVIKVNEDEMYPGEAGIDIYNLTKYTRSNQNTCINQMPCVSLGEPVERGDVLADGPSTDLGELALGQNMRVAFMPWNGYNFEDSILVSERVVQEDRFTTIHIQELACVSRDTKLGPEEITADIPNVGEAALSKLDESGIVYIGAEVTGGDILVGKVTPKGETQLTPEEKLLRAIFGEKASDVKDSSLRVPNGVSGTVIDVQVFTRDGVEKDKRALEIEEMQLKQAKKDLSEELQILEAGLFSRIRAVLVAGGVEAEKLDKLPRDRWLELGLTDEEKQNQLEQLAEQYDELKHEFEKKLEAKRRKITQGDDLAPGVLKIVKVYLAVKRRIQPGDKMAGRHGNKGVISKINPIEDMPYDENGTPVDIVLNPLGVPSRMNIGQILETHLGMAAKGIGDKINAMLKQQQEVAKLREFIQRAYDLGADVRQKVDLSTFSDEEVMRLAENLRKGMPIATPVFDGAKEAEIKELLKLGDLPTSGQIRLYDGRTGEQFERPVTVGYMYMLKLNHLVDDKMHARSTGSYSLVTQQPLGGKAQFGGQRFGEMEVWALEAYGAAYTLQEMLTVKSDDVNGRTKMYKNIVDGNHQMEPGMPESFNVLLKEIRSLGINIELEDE
# T2 sequence (P0A8T7 whole entry, further chain): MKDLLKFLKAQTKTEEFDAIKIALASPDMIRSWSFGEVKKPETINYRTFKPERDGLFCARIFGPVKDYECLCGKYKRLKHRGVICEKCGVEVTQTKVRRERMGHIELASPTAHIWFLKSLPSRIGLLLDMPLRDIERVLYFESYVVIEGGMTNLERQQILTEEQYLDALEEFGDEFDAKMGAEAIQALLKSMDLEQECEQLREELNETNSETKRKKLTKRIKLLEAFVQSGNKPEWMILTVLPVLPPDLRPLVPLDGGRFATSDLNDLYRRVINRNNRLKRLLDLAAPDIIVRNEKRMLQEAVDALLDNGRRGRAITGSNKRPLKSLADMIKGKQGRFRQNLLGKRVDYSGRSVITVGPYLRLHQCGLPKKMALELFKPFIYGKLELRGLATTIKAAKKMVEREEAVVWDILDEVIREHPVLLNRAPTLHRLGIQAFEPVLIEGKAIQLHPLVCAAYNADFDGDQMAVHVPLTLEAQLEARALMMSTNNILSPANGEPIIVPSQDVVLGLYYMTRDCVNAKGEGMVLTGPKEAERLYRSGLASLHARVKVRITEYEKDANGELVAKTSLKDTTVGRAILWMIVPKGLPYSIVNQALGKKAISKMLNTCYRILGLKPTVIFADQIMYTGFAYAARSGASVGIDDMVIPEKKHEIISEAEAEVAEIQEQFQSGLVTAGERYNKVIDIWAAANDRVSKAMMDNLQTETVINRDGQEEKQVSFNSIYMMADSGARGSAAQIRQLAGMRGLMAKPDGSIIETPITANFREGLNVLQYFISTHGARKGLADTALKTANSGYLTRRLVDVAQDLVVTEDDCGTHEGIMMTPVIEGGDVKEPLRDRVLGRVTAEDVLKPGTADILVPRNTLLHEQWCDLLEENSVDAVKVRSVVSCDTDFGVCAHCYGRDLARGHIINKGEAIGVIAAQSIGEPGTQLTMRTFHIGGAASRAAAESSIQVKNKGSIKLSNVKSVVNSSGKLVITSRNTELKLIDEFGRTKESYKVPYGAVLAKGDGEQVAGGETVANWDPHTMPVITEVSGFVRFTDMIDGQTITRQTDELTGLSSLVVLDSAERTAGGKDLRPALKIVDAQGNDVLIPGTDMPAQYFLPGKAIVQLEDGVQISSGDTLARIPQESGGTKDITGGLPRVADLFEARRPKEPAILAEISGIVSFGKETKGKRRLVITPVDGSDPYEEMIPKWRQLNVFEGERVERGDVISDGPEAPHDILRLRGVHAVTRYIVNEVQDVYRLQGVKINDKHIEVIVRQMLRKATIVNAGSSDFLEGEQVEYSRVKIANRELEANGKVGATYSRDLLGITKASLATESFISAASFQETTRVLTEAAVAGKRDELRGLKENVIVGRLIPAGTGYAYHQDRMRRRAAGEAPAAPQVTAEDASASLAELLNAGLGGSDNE
# T2 sequence (P0A800 whole entry, further chain): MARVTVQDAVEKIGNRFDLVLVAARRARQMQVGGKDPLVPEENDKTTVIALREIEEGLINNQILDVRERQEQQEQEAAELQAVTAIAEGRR
# T2 sequence (P00579 whole entry, further chain): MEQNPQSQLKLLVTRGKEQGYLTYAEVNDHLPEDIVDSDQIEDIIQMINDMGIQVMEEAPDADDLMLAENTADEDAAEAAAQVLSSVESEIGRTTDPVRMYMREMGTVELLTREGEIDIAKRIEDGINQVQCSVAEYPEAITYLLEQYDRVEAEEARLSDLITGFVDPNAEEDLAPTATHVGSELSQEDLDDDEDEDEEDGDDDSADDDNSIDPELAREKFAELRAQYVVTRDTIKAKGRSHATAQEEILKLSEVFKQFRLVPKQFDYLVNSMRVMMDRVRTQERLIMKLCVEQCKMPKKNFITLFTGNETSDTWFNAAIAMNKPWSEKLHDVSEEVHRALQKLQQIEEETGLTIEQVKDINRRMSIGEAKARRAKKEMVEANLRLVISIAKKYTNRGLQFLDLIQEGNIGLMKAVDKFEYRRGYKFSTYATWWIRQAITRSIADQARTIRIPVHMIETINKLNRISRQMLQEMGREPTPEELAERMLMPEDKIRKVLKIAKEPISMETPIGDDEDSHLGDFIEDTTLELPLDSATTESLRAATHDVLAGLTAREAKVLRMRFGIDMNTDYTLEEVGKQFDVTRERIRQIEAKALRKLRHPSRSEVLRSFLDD
smiles,measurement,setting,value
"COc1ccc(NC(=O)c2nc[nH]n2)cc1OC [Compound 1, N-(3,4-dimethoxyphenyl)-1H-1,2,4-triazole-3-carboxamide]",Lactate dehydrogenase (LDH) released from J774 cells,J774 cells,did not change
same,Inhibition of DksA-mediated repression of rpsM in vitro transcription,DksA [1]; 1 μM,completely inhibited
same,Activity against DksA-mediated repression of rpsM in vitro transcription,"DksA [1]; qualitative, listed as 916",excellent activity; also recorded: best in vitro efficacy
same,Antimicrobial activity against intracellular Salmonella growing in macrophages,[2],potent antimicrobial activity
same,Antimicrobial activity against intracellular Salmonella growing in macrophages,[2]; listed as 916,inhibits intracellular growth
same,Intracellular growth of ΔdksA Salmonella,"[2]; ΔdksA Salmonella, off-target control",unaffected
same,Growth in EG at concentration tested 1 μg/ml,Salmonella strain 14028s [3]; 18 h,+
same,Growth in EG at concentration tested 2 μg/ml,Salmonella strain 14028s [3]; 18 h,+
same,Growth in EG at concentration tested 4 μg/ml,Salmonella strain 14028s [3]; 18 h,+
same,Growth in EG at concentration tested 8 μg/ml,Salmonella strain 14028s [3]; 18 h,+
same,Growth in EG at concentration tested 16 μg/ml,Salmonella strain 14028s [3]; 18 h,+
same,MIC,"Salmonella strain 14028s [3]; Salmonella, 14028S, 18 h",32 µg/mL
same,MIC,Salmonella strain 14028s [3]; read-out: Minimum inhibitory concentration,32 µg/mL and 129 µM
same,Intracellular expression of the SPI2 effector sifA,SPI2 effector sifA,repressed transcription
same,Intracellular expression of the SPI2 effector sifA,SPI2 effector sifA; listed as 916,inhibits the intracellular expression
same,Inhibition of DksA-dependent activation of hisG in vitro transcription,DksA [4],completely inhibited
same,"In vitro transcription assay result, 0.1 μM",DksA [5],no change
same,"In vitro transcription assay result, 1 μM",DksA [5],good repression
same,IVT,DksA [5],1 µM
same,MIC,E. coli strain 3110,32 µg/mL
same,MIC,E. coli strain 3110; converted,129 µM
same,Anti-Salmonella activity in disk diffusion assays,Salmonella,greatest anti-Salmonella activity
same,Effect on rpsM in vitro transcription by the RNA polymerase itself,[6],did not affect
same,"Compound Solubility, 1 μM",Compound solubility,water
same,"Compound Solubility, 10 μM",Compound solubility,water
same,"Compound Solubility, 100 μM",Compound solubility,water
same,"Compound Solubility, 1 mM",Compound solubility,water
same,"Compound Solubility, 10 mM",Compound solubility,water
same,"Compound Solubility, 16 mg/ml",Compound solubility,DMSO
"COc1ccc(CCNC(=O)c2nc[nH]n2)cc1 [Compound 21, N-(4-methoxyphenethyl)-1H-1,2,4-triazole-3-carboxamide]",Growth in EG at concentration tested 1 μg/ml,Salmonella strain 14028s [3]; 18 h,+
same,Growth in EG at concentration tested 2 μg/ml,Salmonella strain 14028s [3]; 18 h,+
same,Growth in EG at concentration tested 4 μg/ml,Salmonella strain 14028s [3]; 18 h,+
same,Growth in EG at concentration tested 8 μg/ml,Salmonella strain 14028s [3]; 18 h,+
same,Growth in EG at concentration tested 16 μg/ml,Salmonella strain 14028s [3]; 18 h,+
same,MIC,"Salmonella strain 14028s [3]; Salmonella, 14028S, 18 h",32 µg/mL
same,"In vitro transcription assay result, 0.1 μM",DksA [5],no induction
same,"In vitro transcription assay result, 1 μM",DksA [5],no induction
same,IVT,DksA [5],0.1 µM
same,"Anti-Salmonella activity of 4-nitroquinoline-N-oxide, nitrofurazone and mytomycin in combination",Salmonella strain 14028s [7],enhanced the anti-Salmonella activity
same,"Compound Solubility, 1 μM",Compound solubility,water
same,"Compound Solubility, 10 μM",Compound solubility,water
same,"Compound Solubility, 100 μM",Compound solubility,water
same,"Compound Solubility, 1 mM",Compound solubility,water
same,"Compound Solubility, 10 mM",Compound solubility,water
same,"Compound Solubility, 16 mg/ml",Compound solubility,DMSO
